Results from US11299453B2 (Universität zu Köln, priority 2017, dated 2022).

Key:
[1] = tested on: human pluripotent stem cells; conditions: exposure for 48 hours; cited from earlier work
[2] = tested on: murine αPIG-AT25 iPSCs, αPIG44-D3 ESCs and R1 ESCs; assay: Cell viability (PrestoBlue), results pooled over murine PSC lines; format: cell-based; conditions: 40 μM, 72 h
From the text: (§1) The transgenic murine induced pluripotent stem cell (miPSC) line αPIG-AT25 was generated from the miPSC line TiB7.4 as described in Fatima A et al., Stem Cell Res. 2016 Sep.; 17(2):266-272. The murine embryonic stem cell (ESC) line αPIG44-D3 was equally derived from D3 ESC line. Both transgenic mPSC lines express the IRES-linked genes encoding puromycin N-acetyl-aminotransferase (PAC) and enhanced green fluorescent protein (eGFP) which are under the control of cardiac alpha myosin heavy chain (α-MHC) promoter. They were cultured on mitomycin-inactivated mouse embryonic fibroblasts (MEF) in maintenance medium composed of Dulbecco's minimal essential medium (DMEM) with GlutaMAX (Life Technologies, Carlsbad, USA) supplemented with 15% fetal bovine serum (FBS, Sigma-Aldrich, St. Louis, USA), 1× non-essential amino acids (NEEA, Life Technologies), 50 μM β-mercaptoethanol (β-ME, Life Technologies) and 1000 U/ml of murine leukemia inhibitory factor (mLIF, ORF Genetics, Kopavogur, Iceland). Cell passaging was performed every 2-3 days by dissociating the cells with 0.05% trypsin-EDTA (Life Technologies) and seeding 1-2×10^4 cells/cm^2. The wild type mESC line R1 was cultured on cell culture plates coated with 0.1% gelatin (Sigma-Aldrich) and maintained like the transgenic mPSCs.
(§2) Serial dilutions of DMSO stock solutions of PluriSIn #1 (Sigma-Aldrich, catalog number SML0682) or one of small molecules SM1-SM10, were prepared from 20 mM stock solutions with cell culture medium. Murine PSCs were dissociated with 0.05% trypsin-EDTA, seeded on 0.1% gelatin-coated 96-well plates with a density of 5000 cells/well and cultured in maintenance medium supplemented with 1000 U/ml of mLIF. After 1 day, cells were incubated with 40 μM PluriSIn #1 and derivatives for 72 h or with 0.01-25 μM SMs for 48 h, respectively. For treatment of corresponding PSC-derived CMs with SMs, puromycin-selected miPSC-CMs from day 14 of differentiation were dissociated with 0.25% trypsin-EDTA as described above and plated on 96-well plates (5×10^4 cells/well) which were pre-coated with 5 μg/ml fibronectin (PromoCell, Heidelberg, Germany). After culturing miPSC-CMs with 8 μg/ml puromycin for 2 more days, they were incubated in differentiation medium supplemented with 0.1-100 μM of SMs for 48-72 h. Following small molecule treatment, cell viability was determined with PrestoBlue cell viability reagent (Life Technologies). To this end, cells were washed with PBS (with calcium and magnesium, Life Technologies) and incubated with PrestoBlue reagent diluted in cell culture medium for 40 min at 37° C.
(§3) Fluorescence intensities correlating with the number of viable cells in the wells were measured in black flat-bottom 96-well plates (Greiner Bio-One, Kremsmünster, Austria) with a GeniosPro microplate reader (Tecan, Männedorf, Schweiz).
To confirm the cytotoxicity of the compounds to PSCs, toxicity test were also run with murine ESC lines αPIG44-D3 and R1, and for comparison with αPIG-AT25 murine iPSC line. The cells were incubated for 48 h with compounds SM1, SM2, SM4, SM5, SM6 and SM8 in concentrations of 0.01 μM and 10 μM. Cell culture was performed as described above. Experiments were run in quadruplicate and negative and positive control cells were treated with 0.05% DMSO or 8 μg/ml puromycin, respectively. Cell viability was determined using PrestoBlue cell viability reagent.
Murine αPIG-AT25 iPSCs, αPIG44-D3 ESCs and R1 ESCs were incubated with 40 μM PluriSIn #1 (Sigma-Aldrich, catalog number SML0682) for 72 h. Cell culture was performed as described above for determination of the compounds. Experiments were run in quadruplicate and negative and positive control cells were treated with 0.08% DMSO or 8 μg/ml puromycin, respectively. The cell viability was determined using PrestoBlue cell viability reagent. […]

teratoma formation = conditions: after transplanting 1 million cells into immunodeficient mice; cited from earlier work
murine αPIG-AT25 iPSCs = assay: Cell viability (PrestoBlue) of murine iPSCs after compound treatment; format: cell-based; conditions: 48 h; for toxicity to miPSCs (in words): 0.1-25 μM; for concentration dependence of effect on miPSC viability: 0.1, 1, 10 and 25 μM
From the text: as §1, §2, §3
IC50 values were determined by regression analysis of dose-response curves upon logarithmic transformation. Microscopic images of PSCs were taken with a Zeiss Axiovert 100 inverted microscope and GFP images of CMs were captured with a Zeiss Axiovert 200M fluorescence microscope (both Carl Zeiss, Oberkochen, Germany) and analyzed with Zeiss Axiovision 4.5 software (Carl Zeiss).
The cytotoxicity of the compounds according to formulas SM1 to SM10 to pluripotent stem cells (PSCs) was determined in a population of murine αPIG-AT25 iPSCs, which were incubated for 48 h with compounds SM1 to SM10 in concentrations of 0.1 μM, 1 μM, 10 μM and 25 μM. Cell culture was performed as described above. Experiments were run in quadruplicate and negative and positive control cells were treated with 0.125% DMSO or 8 μg/ml puromycin, respectively. The cell viability was determined using PrestoBlue cell viability reagent. […]

[3] = tested on: human neural progenitor cells derived from the human iPSC line Royan-hiPSC4; assay: Cell viability (PrestoBlue) of human iPSC-derived neural progenitor cells; format: cell-based; conditions: 1 μM, 72 h of treatment
Method: To confirm the cytotoxicity of the compounds to PSCs, toxicity tests were also run with human neural progenitor cells (passage 20) derived from the human iPSC line Royan-hiPSC4 (RSCB0082). The cells were incubated for 24 h, 48 h and 72 h with compounds SM20, SM21, SM22 and SM23 in concentrations of 1 μM, 3 μM, 10 μM and 25 μM. Cell culture was performed as described above except that Koch medium was used. Experiments were run in quadruplicate and negative and positive control cells were treated with 0.001% DMSO or 0.1 μM, 1 μM, 10 μM and 25 μM of SM6, respectively. Cell viability was determined using PrestoBlue cell viability reagent.

[4] = tested on: murine αPIG-AT25 iPSC-CM monolayers

O=C(NNc1ccccc1)c1ccncc1 [PluriSIn #1]
removal of human pluripotent stem cells from the culture [1]: successfully removed human pluripotent stem cells from the culture
reduction of cell viability, on average over the three murine PSC lines [2]: 51.32±10.86%
teratoma formation (teratoma formation): prevented teratoma formation

CN(Cc1cccc(-c2ccccc2)c1O)[C@@H]1CCCC[C@H]1N(C)Cc1cccc(-c2ccccc2)c1O [SM3, (1R,2R)-N,N′-dimethyl-N,N′-di[(2-hydroxy-3-phenyl)-benzyl]-1,2-diaminocyclohexane]
toxicity to miPSCs (in words) (murine αPIG-AT25 iPSCs): did not

CC(C)(C)c1cc(C(=O)N[C@@H]2CCCC[C@H]2NC(=O)c2cc(C(C)(C)C)cc(C(C)(C)C)c2O)c(O)c(C(C)(C)C)c1 [SM7, (1R,2R)-N,N′-di[(2-hydroxy-3,5-di-tert.- butyl)benzoyl]-1,2-diaminocyclohexane]
toxicity to miPSCs (in words) (murine αPIG-AT25 iPSCs): did not

CN(Cc1cc(C(C)(C)C)cc(C(C)(C)C)c1O)[C@@H]1CCCC[C@H]1N(C)Cc1cc(C(C)(C)C)cc(C(C)(C)C)c1O [SM9, (1R,2R)-N,N′-dimethyl-N,N′-di[(2-hydroxy-3,5-di-tert.- butyl)benzyl]-1,2-diaminocyclohexane]
concentration dependence of effect on miPSC viability (murine αPIG-AT25 iPSCs): did not show a concentration dependent effect
toxicity to miPSCs (in words) (murine αPIG-AT25 iPSCs): did not

CC(C)(C)c1cc(CN[C@@H]2CCCC[C@H]2NCc2cc(C(C)(C)C)cc(C(C)(C)C)c2O)c(O)c(C(C)(C)C)c1 [SM10, (1R,2R)-N,N′-di[(2-hydroxy-3,5-di-tert.- butyl)benzyl]-1,2-diaminocyclohexane]
concentration dependence of effect on miPSC viability (murine αPIG-AT25 iPSCs): did not show a concentration dependent effect
toxicity to miPSCs (in words) (murine αPIG-AT25 iPSCs): did not

Oc1c(CN[C@@H]2CCCC[C@H]2NCc2cccc(-c3c(F)c(F)c(F)c(F)c3F)c2O)cccc1-c1c(F)c(F)c(F)c(F)c1F [SM20, (1R,2R)-N,N′-di[(2-hydroxy-3-penta-fluorophenyl)-benzyl]-1,2-diaminocyclohexane]
toxicity to miPSCs (in words) (murine αPIG-AT25 iPSCs): good toxicity
NPCs killed [3]: eliminated all cells

c1ccc2[nH]c(CN[C@@H]3CCCC[C@H]3NCc3cc4ccccc4[nH]3)cc2c1 [SM21, (1R,2R)-N,N′-di[(2-indolyl)methyl]-1,2-diaminocyclohexane]
toxicity to miPSCs (in words) (murine αPIG-AT25 iPSCs): good toxicity

Oc1c(CN[C@@H]2CCCC[C@H]2NCc2cccc(-c3cccs3)c2O)cccc1-c1cccs1 [SM23, (1R,2R)-N,N′-di([2-hydroxy-3-(2-thienyl)]-benzyl)-1,2-diaminocyclohexane]
toxicity to miPSCs (in words) (murine αPIG-AT25 iPSCs): good toxicity
NPCs killed [3]: eliminated all cells

N.N.[Cl][Pt][Cl] [cisplatin]
apoptotic CMs (cleaved caspase-3 staining) [4]: presence of apoptotic CMs
sarcomere structure (α-actinin staining) [4]: degradation of the sarcomere structure
